Experimental data published in patent US20050164173A1, “Combined treatments and methods for treatment of mycoplasma and mycoplasma-like organism infections” (priority 2001, published 2005).

Tested on: mycoplasma-like organisms
Assay: tritiated uracil incorporation into mycoplasma-density fractions of CEM culture supernatant (sucrose density gradient)
Format: cell-based
Conditions: control peak about 1200 counts
From the text: As shown in FIGS. 1A-1C, superoxide dismutase (SOD) from a vegetal source has a significant decreasing effect on mycoplasma growth. SOD was included in the medium at the first of the five day experiment. The SOD was purified from melon plant material.

superoxide dismutase [SOD]
peak of tritiated uracil incorporation (mycoplasma growth) (50 μg/ml SOD in medium from first of five days): around 500 counts | peak of tritiated uracil incorporation (mycoplasma growth) (100 μg/ml SOD in medium from first of five days): around 250 counts
